Assay [1] deals with T1, Heat shock protein HSP90 (Homo sapiens, UniProt P07900+P08238). Briefly: Inhibition of Hsp90 in human MCF7 cells assessed as Her2 level after 24 hrs by Western blot. It is filed as cell-based.
Assay [2] has as its target T1, Heat shock protein HSP90. As to the kind of experiment: Inhibition of Hsp90 in human MCF7 cell lysates assessed as interaction with Cy3b-conjugated geldanamycin by FP assay. It is filed as cell-free.
In another assay the test system is MCF7. As to the kind of experiment: Induction of Her2 degradation in human MCF7 cells after 24 hrs by Western blot analysis. It is filed as functional, cell-based. To be noted: MCF7, 24 h. In general terms: In western blotting, separated proteins are transferred to a membrane and probed.

Molecules are shown by their SMILES. Calls of active or inactive are those of the source. No cut-off for these calls is given here.

Our source for the IC50 and Activity values is ChEMBL document CHEMBL1155064, “Discovery of aminoquinolines as a new class of potent inhibitors of heat shock protein 90 (Hsp90): Synthesis, biology, and molecular modeling” (Bioorg Med Chem, 2008).

Broadly, the IC50 is the point on the concentration scale where inhibition reaches its midpoint. On to `NCCCCCNc1cc(O)cc2cccnc12`, for which the IC50 on Heat shock protein HSP90 [1] is 20 µM; at Heat shock protein HSP90 [2] it was less than 1 µM.

On to `COc1cc(NC(C)CCCNC(C)C)c2ncccc2c1` (stereo unspecified), for which the result on Heat shock protein HSP90 [1] was inactive. Moreover, on Heat shock protein HSP90 [2], the IC50 was 14.4 µM.

`CC(C)NCCCC(C)Nc1cc(O)cc2cccnc12` (stereo unspecified): at Heat shock protein HSP90 [1], the outcome was inactive. Further, on Heat shock protein HSP90 [2], the half-inhibitory concentration (IC50) was less than 1.6 µM.

Regarding `CCC(C)(C)NCCCCCNc1cc(OC)cc2cccnc12`, the outcome on Heat shock protein HSP90 [1] was inactive. Further, the IC50 on Heat shock protein HSP90 [2] is more than 50 µM.

With `CC(C)NCCCCCNc1cc(O)cc2cccnc12`, the IC50 at Heat shock protein HSP90 [1] stood at 6 µM; at Heat shock protein HSP90 [2], 2.4 µM.

For the compound `COc1cc(NC(C)CCCN)c2ncccc2c1Oc1ccc(Cl)cc1` (stereo unspecified), the result at Heat shock protein HSP90 [1] was inactive. Also, the IC50 on Heat shock protein HSP90 [2] was more than 50 µM.

Take `CC(N)CCCNc1cc(O)cc2cccnc12` (stereo unspecified): the result on Heat shock protein HSP90 [1] was inactive. For the same compound, on Heat shock protein HSP90 [2], the IC50 was less than 1.6 µM.

As to `CC(CCN(C)C)Nc1cc(O)cc2cccnc12` (stereo unspecified), the IC50 stood at 30 µM on Heat shock protein HSP90 [1] and 0.8 µM at Heat shock protein HSP90 [2].

Turning to `COc1cc(NCCCCN)c2ncccc2c1`, the IC50 at Heat shock protein HSP90 [1] was 25 µM; on Heat shock protein HSP90 [2], more than 50 µM.

Consider `CCN(CC)CCCC(C)Nc1cc(O)cc2cccnc12` (stereo unspecified), for which the result on Heat shock protein HSP90 [1] was inactive. Besides, the IC50 on Heat shock protein HSP90 [2] stood at 1.1 µM.

Take `CCC(CC)NCCCNc1cc(OC)cc2cccnc12`: the IC50 on Heat shock protein HSP90 [1] turned out to be 13 µM; at Heat shock protein HSP90 [2], 40 µM.

In the case of `CCC(C)NCCNc1cc(OC)cc2cccnc12` (stereo unspecified), the result at Heat shock protein HSP90 [1] was inactive. The IC50 at Heat shock protein HSP90 [2] (read-out: IC50) was determined as 3.1 µM.

In the case of `CCCCN(CCCC)CCNc1cc(OC)cc2cccnc12`, the result on Heat shock protein HSP90 [1] was inactive. The IC50 on Heat shock protein HSP90 [2] was 40 µM.

`COc1cc(NCCN(CC(C)C)CC(C)C)c2ncccc2c1`: the values for the concentration for half-maximal inhibition (IC50) on Heat shock protein HSP90 [1] and at Heat shock protein HSP90 [2] were 1.6 µM and 4.9 µM, respectively.

In the case of `NCCCNc1cc(O)cc2cccnc12`, the result at Heat shock protein HSP90 [1] was inactive. Moreover, the IC50 at Heat shock protein HSP90 [2] worked out at 7.6 µM.

As for `CC(CCCN)Nc1cc(O)cc2cccnc12` (stereo unspecified), at Heat shock protein HSP90 [1], the result was inactive. The IC50 on Heat shock protein HSP90 [2] turned out to be 1.8 µM.

As to `CCN(CC)CCCNc1cc(OC)cc2ccc(OC)nc12`, the outcome on Heat shock protein HSP90 [1] was inactive. The IC50 on Heat shock protein HSP90 [2] turned out to be 14 µM.

Regarding `CCN(CC)CCCCNc1cc(O)cc2cccnc12`, the outcome at Heat shock protein HSP90 [1] was inactive. In addition, the IC50 at Heat shock protein HSP90 [2] is more than 50 µM.

As for `CCN(CC)CCCNc1cc(OC)c(Nc2ccccc2)c2cccnc12`, the results for the IC50 on Heat shock protein HSP90 [1] and at Heat shock protein HSP90 [2] were 25 µM and 2.1 µM, respectively.

As for `CCCNCCCC(C)Nc1cc(OC)cc2c(C)ccnc12` (stereo unspecified), the outcome at Heat shock protein HSP90 [1] was inactive. The IC50 at Heat shock protein HSP90 [2] was more than 50 µM.

Turning to `COc1cc(NCCCN(C(C)C)C(C)C)c2nc(OC)cc(Cl)c2c1`, the outcome on Heat shock protein HSP90 [1] was inactive. Further, the IC50 at Heat shock protein HSP90 [2] is more than 50 µM.

For the compound `Br.CCN(CC)CCCCCNc1cc(O)cc2cccnc12`, the IC50 on Heat shock protein HSP90 [1] came to 1 µM; with MCF7, 1 µM; on Heat shock protein HSP90 [2], 0.73 µM.

Regarding `CC(N)CCCCNc1cc(O)cc2cccnc12` (stereo unspecified), the values for the IC50 on Heat shock protein HSP90 [1] and at Heat shock protein HSP90 [2] were 20 µM and less than 1.6 µM, respectively.

As to `CCC(N)CCNc1cc(O)cc2cccnc12` (stereo unspecified), on Heat shock protein HSP90 [1], the result was inactive. For the same compound, the 50% inhibitory concentration (IC50) at Heat shock protein HSP90 [2] is less than 1.6 µM.

Consider `NCCCCNc1cc(O)cc2cccnc12`, for which, on Heat shock protein HSP90 [1], the outcome was inactive. The IC50 at Heat shock protein HSP90 [2] was less than 1.6 µM.

Take `COc1cc(NCCN(C(C)C)C(C)C)c2ncccc2c1`: the result at Heat shock protein HSP90 [1] was inactive. Also, the IC50 on Heat shock protein HSP90 [2] amounted to 40 µM.

Regarding `COc1ccc(Oc2c(OC)cc(NCCCCCNC(C)C)c3ncccc23)cc1`, the result on Heat shock protein HSP90 [1] was inactive. Further, the IC50 on Heat shock protein HSP90 [2] was more than 50 µM.

As for `CCCC(C)N(CC)CCNc1cc(OC)cc2cccnc12` (stereo unspecified), the result on Heat shock protein HSP90 [1] was inactive. In addition, on Heat shock protein HSP90 [2], the IC50 worked out at 8 µM.

`COc1cc(NC(C)CCCNC(C)C)c2ncccc2c1OC` (stereo unspecified): the IC50 is 25 µM on Heat shock protein HSP90 [1] and 44 µM on Heat shock protein HSP90 [2].

Consider `COc1cc(NCCCC(C)N)c2ncccc2c1.Cl.Cl` (stereo unspecified), for which the results for the IC50 on Heat shock protein HSP90 [1] and at Heat shock protein HSP90 [2] were 5 µM and 5.8 µM, respectively.
